US20260345838A1, “IDENTIFICATION AND/OR TREATMENT OF CANCER” (CLARITY PHARMACEUTICALS LIMITED, priority 2022, published 2026)
Values joined by “and” are separate entries in the source; they are usually repeats but may differ in a detail not shown here. Equal values may be shown once.

How the values were obtained:
prostate cancer = assay: PET imaging in post-radical prostatectomy prostate cancer patients with serial negative PSMA-PET; type: in vivo, human; conditions: FIGS. 7 to 10
Description: (§1) A dose of 200 MBq ^64Cu-Sar-BBN was administered to a subject by slow intravenous bolus injection. The subject was imaged by PET/CT and the images analysed to determine the location, size and volume of any cancerous lesions present, which is indicated by the decay products of the ^64Cu radioisotope detected.
All patients received on average 200 MBq of [^64Cu]Cu-SAR-BBN intravenously with 60 minutes for uptake. Patient were scanned at 60-180 minutes post-injection with arms up, from vertex to mid thighs and at each bed position for two minutes. A low dose CT scan was performed with for attenuation correction and anatomical localisation. Comparison of the images obtained from each subject after administration of both ^18FDG and ^64Cu-Sar-BBN can be seen in FIGS. 7 to 10.

[1] = test system: metastatic ER+/PR+/HER2− breast cancer; conditions: compared to triple negative subtypes; cited from earlier work
[2] = test system: metastatic ER+/PR+/HER2− breast cancer; assay: PET imaging in women with metastatic ER+/PR+/HER2− breast cancer; type: in vivo, human
Description: Example 5—Administration of ^64Cu-Sar-BBN for Radioimaging
as §1
Women with clinical progression of metastatic ER+/PR+/HER2− breast cancer requiring re-staging were administered ^18FDG and images of each patient acquired by PET. Imaging with ^64Cu-Sar-BBN PET (with 200 MBq ^64Cu-Sar-BBN administered by IV injection) was performed within 2 weeks of imaging by ^18FDG. Qualitative interpretation of the PET studies was performed by accredited nuclear medicine physicians. Quantitative analysis was performed using MIM Software, Cleveland. Comparison of the images obtained from each subject after administration of both ^18FDG and ^64Cu-Sar-BBN can be seen in FIGS. 1 to 6 (see Table 1).

[3] = 18FDG PET, per patient, listed as FDG

SMILES	lesion detection (prostate cancer)	sensitivity of 18FDG-PET for ER+/PR+ breast cancer [1]	FDG SUVmax [2, 3]	FDG TTV (total tumor volume) [2, 3]	lesion detection compared with the other imaging ([2]; breast cancer patients, FIGS. 1 to 6)	number of lesions identified ([2]; patient of FIG. 4)
OC[C@H]1OC(O)[C@H]([18F])[C@@H](O)[C@@H]1O (stereo partly shown) [^18FDG]	failed to identify any recurrent lesions	lower sensitivity for ER+/PR+ breast cancer, when compared to triple negative	7 (2×) and 20 and <3 and 8 and 11	91 and 168 and 0 and 8 and 2 and 504	did not reveal any tumors	less than 3
O=C(O)CCc1ccc(O)c(CN(CCN(CC(=O)O)Cc2cc(CCC(=O)NCCCCCC(=O)NCCCC[C@H](NC(=O)N[C@@H](CCC(=O)O)C(=O)O)C(=O)O)ccc2O)CC(=O)O)c1.[Ga+3] [^68Ga-PSMA-11]	serial negative PSMA-PET	–	–	–	–	–
